Laboratory results as given in PubChem BioAssay (NCI).
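Five concentrations, 48 hours, 96-well plates. Here, GI50 denotes the concentration required for 50% inhibition of growth. At the TGI there is no net growth.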

Experiments:
Assay in all cases: DTP human tumour cell line panel, 48 h; in the data active means GI50 below about 0.43 µM; inactive means the rest
MCF7 breast = tested on: MCF7 breast
HOP-92 NSCLC = tested on: HOP-92 NSCLC
PC-3 prostate = tested on: PC-3 prostate
HS 578T breast = tested on: HS 578T breast
SF-295 CNS = tested on: SF-295 CNS
UO-31 renal = tested on: UO-31 renal
MALME-3M melanoma = tested on: MALME-3M melanoma
MDA-MB-231 breast = tested on: MDA-MB-231 breast
HCT-116 colon = tested on: HCT-116 colon
NCI-H226 lung = tested on: NCI-H226 lung
NCI-H460 lung = tested on: NCI-H460 lung
NCI-H522 lung = tested on: NCI-H522 lung
U251 CNS = tested on: U251 CNS
UACC-257 melanoma = tested on: UACC-257 melanoma
ACHN renal = tested on: ACHN renal
SW-620 colon = tested on: SW-620 colon
HL-60(TB) leukemia = tested on: HL-60(TB) leukemia
BT-549 breast = tested on: BT-549 breast
A549 NSCLC = tested on: A549 NSCLC
HOP-62 NSCLC = tested on: HOP-62 NSCLC
KM12 colon = tested on: KM12 colon
SF-539 CNS = tested on: SF-539 CNS
DU-145 prostate = tested on: DU-145 prostate
M14 melanoma = tested on: M14 melanoma
COLO 205 colon = tested on: COLO 205 colon
EKVX NSCLC = tested on: EKVX NSCLC
OVCAR-4 ovarian = tested on: OVCAR-4 ovarian
OVCAR-3 ovarian = tested on: OVCAR-3 ovarian
SR leukemia = tested on: SR leukemia
IGROV1 ovarian = tested on: IGROV1 ovarian
HCT-15 colon = tested on: HCT-15 colon
SK-MEL-28 melanoma = tested on: SK-MEL-28 melanoma
SK-OV-3 ovarian = tested on: SK-OV-3 ovarian
SNB-19 CNS = tested on: SNB-19 CNS
CCRF-CEM leukemia = tested on: CCRF-CEM leukemia
K-562 leukemia = tested on: K-562 leukemia
OVCAR-5 ovarian = tested on: OVCAR-5 ovarian
SK-MEL-2 melanoma = tested on: SK-MEL-2 melanoma
A498 renal = tested on: A498 renal
786-0 renal = tested on: 786-0 renal
HCC-2998 colon = tested on: HCC-2998 colon
T-47D breast = tested on: T-47D breast
HT29 colon = tested on: HT29 colon
SF-268 CNS = tested on: SF-268 CNS
OVCAR-8 ovarian = tested on: OVCAR-8 ovarian
SN12C renal = tested on: SN12C renal
TK-10 renal = tested on: TK-10 renal
SK-MEL-5 melanoma = tested on: SK-MEL-5 melanoma
NCI/ADR-RES ovarian = tested on: NCI/ADR-RES ovarian
MOLT-4 leukemia = tested on: MOLT-4 leukemia
MDA-N = tested on: MDA-N
RPMI-8226 leukemia = tested on: RPMI-8226 leukemia
RXF 393 renal = tested on: RXF 393 renal
LOX IMVI melanoma = tested on: LOX IMVI melanoma
MDA-MB-435 = tested on: MDA-MB-435
CAKI-1 renal = tested on: CAKI-1 renal
NCI-H23 lung = tested on: NCI-H23 lung
SNB-75 CNS = tested on: SNB-75 CNS
UACC-62 melanoma = tested on: UACC-62 melanoma

c1ccc([I+]c2ccccc2)cc1
> 100 µM: TGI (MCF7 breast) | TGI (HOP-92 NSCLC) | TGI (PC-3 prostate) | TGI (HS 578T breast) | TGI (SF-295 CNS) | TGI (UO-31 renal) | TGI (MALME-3M melanoma) | TGI (MDA-MB-231 breast) | TGI (HCT-116 colon) | TGI (NCI-H226 lung) | TGI (NCI-H460 lung) | TGI (NCI-H522 lung) | TGI (U251 CNS) | TGI (UACC-257 melanoma) | TGI (ACHN renal) | TGI (SW-620 colon) | TGI (HL-60(TB) leukemia) | TGI (BT-549 breast) | TGI (A549 NSCLC) | TGI (HOP-62 NSCLC) | TGI (KM12 colon) | TGI (SF-539 CNS) | TGI (DU-145 prostate) | TGI (M14 melanoma) | TGI (COLO 205 colon) | TGI (EKVX NSCLC) | TGI (OVCAR-4 ovarian) | TGI (OVCAR-3 ovarian) | TGI (SR leukemia) | TGI (IGROV1 ovarian) | TGI (HCT-15 colon) | TGI (SK-MEL-28 melanoma) | TGI (SK-OV-3 ovarian) | TGI (SNB-19 CNS) | TGI (CCRF-CEM leukemia) | TGI (K-562 leukemia) | TGI (OVCAR-5 ovarian) | TGI (SK-MEL-2 melanoma) | TGI (A498 renal) | TGI (786-0 renal) | TGI (HCC-2998 colon) | TGI (T-47D breast) | TGI (HT29 colon) | TGI (SF-268 CNS) | TGI (OVCAR-8 ovarian) | TGI (SN12C renal) | TGI (TK-10 renal) | TGI (SK-MEL-5 melanoma) | TGI (NCI/ADR-RES ovarian) | TGI (MOLT-4 leukemia) | TGI (MDA-N) | TGI (RPMI-8226 leukemia) | TGI (RXF 393 renal) | TGI (LOX IMVI melanoma) | TGI (MDA-MB-435) | TGI (CAKI-1 renal) | TGI (NCI-H23 lung)

OC1CSc2nc3ccccc3n2C1 (configuration not stated)
> 100 µM: TGI (MCF7 breast) | TGI (HOP-92 NSCLC) | TGI (PC-3 prostate) | TGI (SF-295 CNS) | TGI (UO-31 renal) | TGI (MALME-3M melanoma) | TGI (MDA-MB-231 breast) | TGI (HCT-116 colon) | TGI (NCI-H226 lung) | TGI (NCI-H460 lung) | TGI (U251 CNS) | TGI (UACC-257 melanoma) | TGI (ACHN renal) | TGI (SW-620 colon) | TGI (HL-60(TB) leukemia) | TGI (BT-549 breast) | TGI (A549 NSCLC) | TGI (KM12 colon) | TGI (SF-539 CNS) | TGI (DU-145 prostate) | TGI (M14 melanoma) | TGI (COLO 205 colon) | TGI (EKVX NSCLC) | TGI (OVCAR-3 ovarian) | TGI (SR leukemia) | TGI (IGROV1 ovarian) | TGI (HCT-15 colon) | TGI (SK-OV-3 ovarian) | TGI (SNB-19 CNS) | TGI (CCRF-CEM leukemia) | TGI (K-562 leukemia) | TGI (UACC-62 melanoma) | TGI (OVCAR-5 ovarian) | TGI (A498 renal) | TGI (786-0 renal) | TGI (HCC-2998 colon) | TGI (T-47D breast) | TGI (HT29 colon) | TGI (SF-268 CNS) | TGI (OVCAR-8 ovarian) | TGI (SN12C renal) | TGI (TK-10 renal) | TGI (SK-MEL-5 melanoma) | TGI (NCI/ADR-RES ovarian) | TGI (MOLT-4 leukemia) | TGI (MDA-N) | TGI (RPMI-8226 leukemia) | TGI (RXF 393 renal) | TGI (LOX IMVI melanoma) | TGI (MDA-MB-435) | TGI (CAKI-1 renal) | TGI (NCI-H23 lung)
77.7 µM: TGI (HS 578T breast)
44.8 µM: TGI (SNB-75 CNS)

Cc1nc2sccn2c1/C=C1/C(=O)Nc2cccc(Cl)c21
39.3 µM: TGI (MDA-MB-435)
38.1 µM: TGI (MDA-N)
> 100 µM: TGI (MCF7 breast) | TGI (HOP-92 NSCLC) | TGI (PC-3 prostate) | TGI (HS 578T breast) | TGI (SF-295 CNS) | TGI (UO-31 renal) | TGI (MALME-3M melanoma) | TGI (MDA-MB-231 breast) | TGI (HCT-116 colon) | TGI (NCI-H460 lung) | TGI (NCI-H522 lung) | TGI (U251 CNS) | TGI (UACC-257 melanoma) | TGI (ACHN renal) | TGI (SW-620 colon) | TGI (HL-60(TB) leukemia) | TGI (BT-549 breast) | TGI (A549 NSCLC) | TGI (HOP-62 NSCLC) | TGI (KM12 colon) | TGI (SF-539 CNS) | TGI (DU-145 prostate) | TGI (SNB-75 CNS) | TGI (M14 melanoma) | TGI (COLO 205 colon) | TGI (EKVX NSCLC) | TGI (OVCAR-3 ovarian) | TGI (SR leukemia) | TGI (IGROV1 ovarian) | TGI (HCT-15 colon) | TGI (SK-MEL-28 melanoma) | TGI (SK-OV-3 ovarian) | TGI (SNB-19 CNS) | TGI (CCRF-CEM leukemia) | TGI (K-562 leukemia) | TGI (UACC-62 melanoma) | TGI (OVCAR-5 ovarian) | TGI (SK-MEL-2 melanoma) | TGI (A498 renal) | TGI (786-0 renal) | TGI (HCC-2998 colon) | TGI (T-47D breast) | TGI (HT29 colon) | TGI (SF-268 CNS) | TGI (OVCAR-8 ovarian) | TGI (SN12C renal) | TGI (TK-10 renal) | TGI (SK-MEL-5 melanoma) | TGI (NCI/ADR-RES ovarian) | TGI (MOLT-4 leukemia) | TGI (RPMI-8226 leukemia) | TGI (RXF 393 renal) | TGI (LOX IMVI melanoma) | TGI (CAKI-1 renal) | TGI (NCI-H23 lung)

COc1cc(OC)c2[nH]c3c(O)c(-c4c(C)cc5c([nH]c6c(OC)cc(OC)cc65)c4O)c(C)cc3c2c1
15.9 µM: TGI (SF-268 CNS)
15.2 µM: TGI (PC-3 prostate) | TGI (SK-MEL-5 melanoma)
23.7 µM: TGI (RPMI-8226 leukemia)
22.1 µM: TGI (CAKI-1 renal)
21.9 µM: TGI (MOLT-4 leukemia)
13.7 µM: TGI (IGROV1 ovarian)
17.6 µM: TGI (NCI-H226 lung)
16.8 µM: TGI (SF-539 CNS) | TGI (RXF 393 renal)
15.7 µM: TGI (HCT-116 colon) | TGI (MDA-N)
21.8 µM: TGI (SF-295 CNS)
17.7 µM: TGI (T-47D breast)
19.1 µM: TGI (MDA-MB-231 breast)
15 µM: TGI (DU-145 prostate)
24.9 µM: TGI (MDA-MB-435)
15.6 µM: TGI (HOP-92 NSCLC)
15.5 µM: TGI (SNB-75 CNS) | TGI (M14 melanoma)
17.9 µM: TGI (TK-10 renal)
23.9 µM: TGI (HOP-62 NSCLC)
20.5 µM: TGI (K-562 leukemia)
inactive: GI50 (MCF7 breast) 8.68 µM | GI50 (SF-295 CNS) 10.2 µM | GI50 (UO-31 renal) 6.83 µM | GI50 (HL-60(TB) leukemia) 2.82 µM | GI50 (SR leukemia) 9.01 µM | GI50 (HCT-15 colon) 8.28 µM | GI50 (K-562 leukemia) 9.7 µM | GI50 (OVCAR-5 ovarian) 9.03 µM | GI50 (A498 renal) 7.82 µM | GI50 (HT29 colon) 8.03 µM | GI50 (SK-MEL-5 melanoma) 8.38 µM | GI50 (MOLT-4 leukemia) 8.59 µM | GI50 (MDA-N) 8.83 µM | GI50 (RPMI-8226 leukemia) 10.5 µM | GI50 (MDA-MB-435) 12 µM | GI50 (CAKI-1 renal) 9.89 µM | GI50 (NCI-H23 lung) 8.2 µM
16.7 µM: TGI (NCI-H23 lung)
50 µM: TGI (U251 CNS)
15.3 µM: TGI (HCC-2998 colon) | TGI (OVCAR-8 ovarian)
14.6 µM: TGI (LOX IMVI melanoma)
16.6 µM: TGI (NCI-H460 lung) | TGI (NCI-H522 lung) | TGI (NCI/ADR-RES ovarian)
15.8 µM: TGI (ACHN renal)
19 µM: TGI (UACC-257 melanoma)
20 µM: TGI (SR leukemia)
20.2 µM: TGI (HS 578T breast)
10.5 µM: TGI (HL-60(TB) leukemia)
16.9 µM: TGI (HCT-15 colon)
16.1 µM: TGI (BT-549 breast)
18.9 µM: TGI (MCF7 breast)
13.3 µM: TGI (UO-31 renal) | TGI (A549 NSCLC)
18.6 µM: TGI (OVCAR-3 ovarian)
12.7 µM: TGI (EKVX NSCLC)
15.1 µM: TGI (786-0 renal)
19.5 µM: TGI (SK-MEL-28 melanoma)
16.2 µM: TGI (OVCAR-5 ovarian)
23.8 µM: TGI (KM12 colon)
14.8 µM: TGI (A498 renal) | TGI (HT29 colon)
17.4 µM: TGI (SK-MEL-2 melanoma)
20.3 µM: TGI (SW-620 colon)
21.4 µM: TGI (OVCAR-4 ovarian)
